Data published in US20080171710A1, “The Redox/Fyn/c-Cbl Pathway” (priority 2007, published 2008).
Where two headings read alike, the source gives them in different places.

Legend:
Fyn = type: cell-based, rat
O-2A/OPCs [1] = test: Analysis of Pb uptake (Leadmium Green AM); type: cell-based, rat; settings: 1 μM Pb, 1 mM NAC
Method: Pre-treatment with NAC was assayed to determine whether levels of intracellular Pb was altered using analysis with the Leadmium Green AM dye (Molecular Probes), according to the manufacturer's instructions. […] (unpaired t-test), and the values for both Pb-treated samples were several-fold higher than control values.

O-2A/OPCs [2] = test: Clonal analysis of division and differentiation; type: cell-based, rat
Method: O-2A/OPCs purified from P7 rat optic nerve were plated in. poly-L-lysine-coated 25-cm^2 flasks at clonal density with DMBM medium in the presence of 10-ng/ml PDGF as previously described. After 24-h recovery, cells were treated with different toxicants, each for 3 d, until visual inspection and immunostaining was performed. NAC was added 1 h before exposure to other toxicants for NAC pretreatment, and NAC co-exists throughout the culture period. The numbers of O-2A/OPCs and oligodendrocytes in each clone were determined by counting under fluorescent microscope. […] Experiments were performed in triplicate in at least two independent experiments.

[3] = 14 mo of age, cited from earlier work
O-2A/OPCs [4] = test: Cell death of O-2A/OPCs on exposure; type: cell-based, rat
Method: To generate sufficient numbers of cells for biochemical analysis, cells, were expanded through one to two passages in PDGF+FGF-2 before replating in the presence of PDGF alone. When cells achieved approximately 50% confluence, MeHg, Pb, or paraquat was added to their medium at concentrations indicated. Doses for the toxicants were chosen on the basis of dose-response curves to identify sub-lethal exposure levels, as a reflection of blood and brain toxicant levels of these compounds and, where applicable, on the basis of previous reports. All toxicant concentrations examined were confirmed to cause death of less than 5% of cells over the time course of the experiment.

O-2A/OPCs [5] = test: Intracellular ROS / redox state measurement; type: cell-based, rat; settings: O-2A/OPCs in PDGF; MeHg, exposure levels as low as 20 nM
Method: Cells were plated in 96-well microplates and grown to about 60% continence. […] Cells were then washed once with HBSS and growth medium to remove free probe. Then, fresh growth medium was added and a baseline fluorescence reading was taken prior to treatment. For NAC pre-treatment. […] Fluorescence was measured in a Wallac 1420 Victor2 multilabel counter (PerkinElmer) using excitation and emission wavelengths of 485 nm and 535 nm, respectively, at different time courses as indicated in the figures. Results are presented as the value change from baseline by the formula (Ftexp−Ftbase)/Ftbase normalized with the control group, where Ftexp=fluorescence at any given time during the experiment in a give well and Ftbase=baseline fluorescence of the same well.

[6] = Brain mercury levels in offspring after maternal drinking water exposure; type: in vivo, mice
Method: Six-week-old female SJL mice were treated with MeHg in their drinking water at a concentration of 100 or 250 ppb for 30-60 d prior to mating, and then throughout pregnancy and gestation. This is a level of treatment that is 75%-90% below levels generally considered to be low to moderate and is below levels that have been associated with gross defects in adult or developing animals (e.g., [69-73]).
In the present study, exposure of female mice to MeHg in their drinking water at a concentration of 250 ppb prior to conception, and maintenance of this exposure during suckling, was associated with brain mercury levels in the offspring (examined at P.14) of 50 ng/g, a fall that was precisely in agreement with predictions based on prior studies on the fall of mercury levels occurring during this period in suckling mice. […] The exposure levels of 100 and 250 ppb are 75%-90% below what has otherwise been considered to be low-dose exposure in mice.

PDGFRα mRNA = test: PDGFRα mRNA, real-time RT-PCR; type: cell-based, rat; settings: MeHg exposure
Method: Total RNA was isolated using TRIZOL reagent (Inviirogen, Carlsbad, Calif., United States) according to the manufacturer's protocol. A total of 1 μg of RNA was subjected to reverse transcription using Superscript II (In vitrogen). The reactions were incubated at 42° C. for 50 min. The FAM-iabeled probe mixes for rat PDGFRα and Fyn, and the VIC-labeled GAPDH probe mix were purchased from Applied Biosystems (Foster City Calif., United States). For multiplex real-time PCR, reactions each containing 5 μl of 10-fold diluted reverse transcription product, 1 μl of interest gene probe mix. 1 μl of GAPDH probe mix, and 10 μl of TaqMan Universal PCR Master Mix were performed on an iCycler iQ multicolor real-time PCR system (Bio-Rad, Hercules, Calif., United States) and cycling condition was 50° C. for 2 min and 95° C. for 10 min, followed by 40 cycles of 95° C. for 15 sec and 60° C. for 1 min. Each sample was run in triplicate. Data were analyzed, by iCycler iQ software (Bio-Rad).

CC(=O)N[C@@H](CS)C(=O)O [NAC, N-acetyl-L-cysteine]
effect on EtOH-induced Fyn phosphorylation (Fyn; co-exposure to NAC): blocked
effect on Aβ-induced increase in phosphorylated Fyn (Fyn; co-exposure with Aβ): reversed
Pb levels in cells, Pb versus Pb and NAC (O-2A/OPCs [1]): no significant difference
effect on MeHg-induced suppression of cell division at the clonal level (O-2A/OPCs [2]; co-exposure with MeHg, 1 mM NAC or PP1): blocked

[CH3][Hg][Cl] [MeHg, methylmercury]
brain levels of MeHg ([3]; 1 ppm in drinking water from conception): 1.20 mg/kg
brain levels of MeHg ([3]; 3 ppm in drinking water): 3.66 mg/kg
cell death at the concentrations used (O-2A/OPCs [4]; MeHg at lower concentrations (not above 50 nM), 1 μM Pb, 5 μM paraquat): little or no cell death
exposure level associated with significant lethality (O-2A/OPCs [4]; O-2A/OPCs): above 50 nM
cells more oxidized (intracellular redox state) (O-2A/OPCs [5]): approximately 20%
brain mercury in offspring ([6]; 100 ppb MeHg in maternal drinking water): below the levels of detection
brain mercury levels in the offspring ([6]; 250 ppb MeHg in maternal drinking water, examined at P14): 50 ng/g
levels of PDGFRα mRNA (PDGFRα mRNA): did not have any significant effects
clone composition (cell division at the clonal level) (O-2A/OPCs [2]; MeHg exposure, PDGF): reduction in the number of large clones and an increase in the number of small clones
